Peptide text beside a SMILES is read from it.
How the values were obtained:
isoD7-Aβ16 = assay: NMR titration, isoD7-Aβ16 with HAEE and Zn2+; format: binding; details: NMR
Procedure: Peptides Aβ16, H6R-Aβ16 and isoD7-Aβ16 at the concentration of 0.2 - 8mM were dissolved in 10-20 mM bis-Tris-d19 (2,2-Bis(hydroxymethyl)-2,2′,2"-nitrilotrie-thanol-d19 with 98% ^2D enrichment) buffer solution (pH 6.8). Sodium salt of 3-(trimethylsilyl) propionic-2,2,3,3-d4 acid (DSS) at a concentration of 10-20 μM was added as the standard. NMR spectra were measured at 278 K in 90% H2O/10% D2O with Bruker AVANCE 600 MHz spectrometer equipped with triple resonance (^1H, ^13C and ^15N) pulsed field z gradient probe. 1D NMR spectra were processed and analyzed using the Mnova software (Mestrelab Research, Spain). In order to monitor peptide-peptide interactions NMR titration experiments were carried out. […] 1D spectra were recorded for each titration point.

transgenic mice = details: cited from earlier work
Text: The development of AD comprises a cascade of pathogenic processes in brain tissue. Some of the major elements of this cascade are the aggregation of beta-amyloid (Aβ) with the formation of neurotoxic oligomers, hyperphosphorylation of tau, and neuroinflammation. […] In the sporadic form of AD, accounting for 95% of disease cases, the molecular triggers for the pathological cascade remain unknown. […] We hypothesized that the contribution of isoD7-Aβ to the development of AD is based on the formation of zinc-bound complexes that promote pathological aggregation of Aβ (Fig. 1A). […] Interaction of HAEE with beta-amyloid. (A) A model for the contribution of isoD7-Aβ to AD pathology, and the possible ways of preventing its deleterious effects. Aβ spontaneously converts into isoD7-Aβ, which is accumulated over age, likely due to reduced Aβ clearance. Isomerized Aβ promotes AD pathology, potentially via formation of Zn-bound complexes serving as the seeds for a generation of neurotoxic oligomers. Treatment with anti-isoAβ antibodies is a promising therapeutic strategy already showing effectiveness in AD model mice ^9.

immobilized isoD7-Aβ42 = target: T1, immobilized isoD7-Aβ42 (Homo sapiens, UniProt P05067); assay: SPR analysis of HAEE binding to immobilized isoD7-Aβ42
T1 construct: isoD7-Aβ42 (DAEFRH[isoD][…]); purchased Biopeptide Co., LLC (San Diego, CA, USA); host or cells: chemical synthesis
T1 sequence (P05067 672-713): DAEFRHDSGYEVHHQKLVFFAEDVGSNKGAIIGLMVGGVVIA
Procedure: All SPR measurements were carried out at 25°C using an optical biosensor Biacore 8K (GE Healthcare, USA) with CM4 optical chip. Covalent immobilization of the peptide ligands on the surface of the optical chip was performed using the sulfhydryl group of the C-terminal tetragly-cylcysteine tag. Briefly, carboxyl groups on the chip surface were activated by serial injections of mixture of 0.4 M EDC/0.1 M NHS at a flow rate of 10 μL/min for 2 min and a solution of 80 mM PDEA in 100 mM borate buffer (pH 8.5) for 4 min. Solutions of 2 μM peptides in the immobilization buffer (10 mM acetate buffer, pH 4.5) were injected for 2 min at a flow rate of 10 μL/min (three repeats). Unreacted activated groups on the chip were blocked by further injection of a solution containing 50 mM cysteine, 1 M NaCl, 0.1 M sodium acetate (pH 4.3) for 4 min at a flow rate of 5 μL/min. Possible nonspecific analyte binding to the chip surface was evaluated using a free (control) channel of the biosensor exposed to the same treatments as the working channel except peptides. SPR signals were recorded in real time in resonance units (RU; 1 RU corresponds to […]) and were presented in the form of sensorgrams showing time-dependent signal changes. […] The obtained sensorgrams were analyzed with BIAevaluation v.4.1 software.

SMILES: CC(=O)N[C@@H](Cc1c[nH]cn1)C(=O)N[C@@H](C)C(=O)N[C@@H](CCC(=O)O)C(=O)N[C@@H](CCC(=O)O)C(N)=O [HAEE, Ac-HAEE-NH2] (Ac-HAEE-NH2)
- Zinc-dependent dimerization of isoD7-Aβ16 (isoD7-Aβ16; 278 K, pH 6.8, Zn2+): inhibits
- Effect of Zn2+ on isoD7-Aβ16 NMR signal in the presence of HAEE (isoD7-Aβ16; pH 6.8, 278 K, Zn2+ plus HAEE): did not diminish the isoD7-Aβ16 signal
- Amyloid accumulation in animal models of AD (transgenic mice): hamper amyloid accumulation
- Interaction with immobilized isoD7-Aβ42 in the absence of Zn2+ (immobilized isoD7-Aβ42; 10 mM HEPES, pH 6.8, no Zn2+, 25°C): no interaction
- Kd (immobilized isoD7-Aβ42; immobilized isoD7-Aβ42, 100 µM ZnCl2, pH 6.8, 25°C): 10.4 ± 0.4 µM
